Laboratory results published in ChEMBL document CHEMBL1201862, “PubChem BioAssay data set” (2004).
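Tested at 5 concentrations; 48 h exposure; 96-well plates; endpoints linearly interpolated, else capped at highest concentration. GI50 = concentration required for 50% inhibition of growth.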 Calls of active or inactive are those of the source. No stated cut-off is given here; in the data, active = GI50 up to about 1.1 µM and inactive = higher.

Experiments:
Assay in all cases: NCI tumour cell line growth inhibition, 48 h
K562 = tested on: K562
COLO 205 = tested on: COLO 205
RXF 393 = tested on: RXF 393
OVCAR-4 = tested on: OVCAR-4
BT-549 = tested on: BT-549
SK-MEL-5 = tested on: SK-MEL-5
M14 = tested on: M14
NCI/ADR-RES = tested on: NCI/ADR-RES
NCI-H226 = tested on: NCI-H226
SK-MEL-2 = tested on: SK-MEL-2
HOP-92 = tested on: HOP-92
DU-145 = tested on: DU-145
SF-539 = tested on: SF-539
HCT-15 = tested on: HCT-15
IGROV-1 = tested on: IGROV-1
Hs-578T = tested on: Hs-578T
CAKI-1 = tested on: CAKI-1
SW-620 = tested on: SW-620
U-251 = tested on: U-251
SR = tested on: SR

| SMILES | GI50 (K562) | GI50 (COLO 205) | GI50 (RXF 393) | GI50 (OVCAR-4) | GI50 (BT-549) | GI50 (SK-MEL-5) | GI50 (M14) | GI50 (NCI/ADR-RES) | GI50 (NCI-H226) | GI50 (SK-MEL-2) | GI50 (HOP-92) | GI50 (DU-145) | GI50 (SF-539) | GI50 (HCT-15) | GI50 (IGROV-1) | GI50 (Hs-578T) | GI50 (CAKI-1) | GI50 (SW-620) | GI50 (U-251) | GI50 (SR) |
| --- | --- | --- | --- | --- | --- | --- | --- | --- | --- | --- | --- | --- | --- | --- | --- | --- | --- | --- | --- | --- |
| COc1c2ccsc2c(OC)c2ccsc12 | > 100 µM (inactive) | > 100 µM (inactive) | 35.2 µM (inactive) | > 100 µM (inactive) | > 100 µM (inactive) | > 100 µM (inactive) | > 100 µM (inactive) | > 100 µM (inactive) | > 100 µM (inactive) | > 100 µM (inactive) | 39.4 µM (inactive) | > 100 µM (inactive) | 26.1 µM (inactive) | > 100 µM | > 100 µM (inactive) | 71.4 µM (inactive) | 0.478 µM (active) | > 100 µM (inactive) | 95.7 µM (inactive) | > 100 µM (inactive) |
| C/C1=C/C[C@@H](/C(C)=C/c2csc(C)n2)OC(=O)C[C@H](O)C(C)(C)C(=O)[C@H](C)[C@@H](O)[C@@H](C)CCC1 [EPOTHILONE D] | < 0.0001 µM (active) | < 0.0001 µM (active) | < 0.0001 µM (active) | 0.137 µM (active) | < 0.0001 µM (active) | < 0.0001 µM (active) | < 0.0001 µM (active) | < 0.0001 µM (active) | < 0.0001 µM (active) | < 0.0001 µM (active) | 0.141 µM (active) | < 0.0001 µM (active) | < 0.0001 µM (active) | < 0.0001 µM | < 0.0001 µM (active) | < 0.0001 µM (active) | < 0.0001 µM (active) | < 0.0001 µM (active) | < 0.0001 µM (active) | < 0.0001 µM (active) |
| N#Cc1c(O)nc2nn3c4ccc5ccccc5c4nnc3c2c1-c1ccc(Cl)cc1 | 4.16 µM (inactive) | 2.24 µM (inactive) | 2.01 µM (inactive) | 3.58 µM (inactive) | 0.174 µM (active) | 1.92 µM (inactive) | 2.38 µM (inactive) | 4.55 µM (inactive) | 7.14 µM (inactive) | 1.9 µM (inactive) | 2.3 µM (inactive) | 1.95 µM (inactive) | 1.96 µM (inactive) | 1.89 µM | 1.2 µM (inactive) | 2.76 µM (inactive) | 2.29 µM (inactive) | 2.03 µM (inactive) | 2.12 µM (inactive) | 0.675 µM (active) |
| CCCC(=O)Nc1cn(COC)c(C(=O)N2C[C@H]3C[C@@]34C2=CC(=O)c2[nH]cc(C)c24)n1 | 5.31 µM (inactive) | 7.78 µM (inactive) | 8.2 µM (inactive) | 9.12 µM (inactive) | 9.2 µM (inactive) | 4.06 µM (inactive) | 8.15 µM (inactive) | 6.21 µM (inactive) | 9.86 µM (inactive) | 14 µM (inactive) | 8.05 µM (inactive) | 1.38 µM (inactive) | 4.98 µM (inactive) | 11.9 µM | 9.93 µM (inactive) | 15.4 µM (inactive) | 2.72 µM (inactive) | 3.66 µM (inactive) | 4.42 µM (inactive) | 2.2 µM (inactive) |
| CN(C)CCCN1c2ccccc2C(C)(C)c2ccccc21 [DIMETACRINE] | 13.3 µM (inactive) | 14.6 µM (inactive) | 12.9 µM (inactive) | 13.9 µM (inactive) | 14.9 µM (inactive) | 13.4 µM (inactive) | 15.5 µM (inactive) | 17.1 µM (inactive) | 15.6 µM (inactive) | 16.5 µM (inactive) | 14.6 µM (inactive) | 15.9 µM (inactive) | 15.2 µM (inactive) | 16.3 µM | 17.9 µM (inactive) | 15.1 µM (inactive) | 12.6 µM (inactive) | 21.2 µM (inactive) | 12.4 µM (inactive) | 13.1 µM (inactive) |
| O=S(=O)(Nc1ccc2ccc3cccc4ccc1c2c34)c1ccccc1 | 6.7 µM (inactive) | 29.5 µM (inactive) | > 100 µM (inactive) | > 100 µM (inactive) | > 100 µM (inactive) | 14.1 µM (inactive) | > 100 µM (inactive) | 35.1 µM (inactive) | 19.4 µM (inactive) | 70.5 µM (inactive) | 4.84 µM (inactive) | > 100 µM (inactive) | 25.6 µM (inactive) | 12.9 µM | 18.7 µM (inactive) | 28.1 µM (inactive) | 6 µM (inactive) | 30.1 µM (inactive) | 50.4 µM (inactive) | 2.67 µM (inactive) |
| O=C1Nc2ccccc2/C1=C1/Nc2ccccc2/C1=N/OCCOCCO | 5 µM (inactive) | 1.39 µM (inactive) | 1.03 µM (active) | 7.19 µM (inactive) | 2.38 µM (inactive) | 1.57 µM (inactive) | 1.9 µM (inactive) | 4.17 µM (inactive) | 0.547 µM (active) | 0.644 µM (active) | 13.8 µM (inactive) | 1.39 µM (inactive) | 2.88 µM (inactive) | 0.664 µM | 0.0836 µM (active) | 0.592 µM (active) | 0.201 µM (active) | 1.82 µM (inactive) | 3.29 µM (inactive) | 1.68 µM (inactive) |
| C/C=C1/CC(C)C(C)(O)C(=O)OCC2C(O)CN3CCC(OC1=O)C23 (stereo not given) | > 100 µM (inactive) | > 100 µM (inactive) | > 100 µM (inactive) | > 100 µM (inactive) | > 100 µM (inactive) | > 100 µM (inactive) | > 100 µM (inactive) | > 100 µM (inactive) | > 100 µM (inactive) | > 100 µM (inactive) | > 100 µM (inactive) | > 100 µM (inactive) | > 100 µM (inactive) | > 100 µM | > 100 µM (inactive) | > 100 µM (inactive) | > 100 µM (inactive) | > 100 µM (inactive) | > 100 µM (inactive) | > 100 µM (inactive) |
| COc1ccc(/C=C/C(=N/NC(=O)N/N=C(/C=C/c2ccc(OC)cc2)C(C)C)C(C)C)cc1 | 37.8 µM (inactive) | 43.7 µM (inactive) | > 100 µM (inactive) | > 100 µM (inactive) | > 100 µM (inactive) | 95.9 µM (inactive) | 44.4 µM (inactive) | 69.7 µM (inactive) | > 100 µM (inactive) | > 100 µM (inactive) | 66.7 µM (inactive) | 80.2 µM (inactive) | > 100 µM (inactive) | 49.5 µM | > 100 µM (inactive) | > 100 µM (inactive) | > 100 µM (inactive) | > 100 µM (inactive) | 71 µM (inactive) | > 100 µM (inactive) |
| C[C@@H]1CCC2[C@@H](C)[C@H](O[C@H]3O[C@@H]4O[C@@]5(C)CCC6[C@H](C)CCC([C@H]3C)[C@]64OO5)O[C@@H]3O[C@@]4(C)CCC1[C@@]23OO4 (stereo not given in full) | 0.0202 µM (active) | 0.0388 µM (active) | 1.3 µM (inactive) | 0.27 µM (active) | 0.0553 µM (active) | 0.09 µM (active) | 0.475 µM (active) | 0.192 µM (active) | 2.11 µM (inactive) | 0.401 µM (active) | 0.114 µM (active) | 1.93 µM (inactive) | 0.264 µM (active) | 0.022 µM | 0.931 µM (active) | 0.39 µM (active) | 0.27 µM (active) | 0.0418 µM (active) | 0.0637 µM (active) | 0.0318 µM (active) |
| CC1CCCCCC(=O)c2c(O)cc(O)cc2CC(=O)O1 (stereo not given) [CURVULARIN] | 41.6 µM (inactive) | > 100 µM (inactive) | > 100 µM (inactive) | > 100 µM (inactive) | 54.1 µM (inactive) | > 100 µM (inactive) | > 100 µM (inactive) | > 100 µM (inactive) | > 100 µM (inactive) | 76.6 µM (inactive) | > 100 µM (inactive) | > 100 µM (inactive) | > 100 µM (inactive) | > 100 µM | > 100 µM (inactive) | > 100 µM (inactive) | > 100 µM (inactive) | > 100 µM (inactive) | > 100 µM (inactive) | 44.5 µM (inactive) |
| CCOC(=O)c1cc2cc3c4c(c2oc1=O)CCCN4CCC3 | 38.3 µM (inactive) | 24.7 µM (inactive) | 10.4 µM (inactive) | 34 µM (inactive) | 31.4 µM (inactive) | 13.4 µM (inactive) | 32.3 µM (inactive) | 22.2 µM (inactive) | 14.7 µM (inactive) | 24.7 µM (inactive) | 17.1 µM (inactive) | 31.6 µM (inactive) | 23.5 µM (inactive) | 25.2 µM | 27.2 µM (inactive) | 25 µM (inactive) | 47.3 µM (inactive) | 67.9 µM (inactive) | 28.8 µM (inactive) | 22.8 µM (inactive) |
